# Data as given in US20060035977A1, “Uses of acylated aminopropanediols and sulphur and nitrogen analogues of same f” (Gentif, priority 2003, published 2006).
# How the values were obtained:
# LDL = assay: Protection against LDL oxidation induced by copper (conjugated diene formation); type: biochemical; details: for shift in the lag phase latency (delay): LDL oxidation induced by copper, conjugated dienes at 234 nm, relative to control (FIG. 4A); for antioxidant activity on LDL oxidation induced by copper: conjugated diene formation, 30° C., 8 hours
# Protocol: LDL were prepared as described in Lebeau et al. (Lebeau, Furman et al. 2000). The solutions of the test compounds were prepared at 10^−2 M in ethanol and diluted in PBS so that the final concentration ranged from 0.1 to 100 μM with a total ethanol concentration of 1% (VN).
# Before oxidation, EDTA was removed from the LDL preparation by dialysis. The oxidation reaction was then carried out at 30° C. by adding 100 μl of 16.6 μM CuSO4 to 800 μl of LDL (125 μg protein/ml) and 100 μl of a test compound solution. The formation of dienes, the species to be followed, was measured by the optical density at 234 nm in the samples treated with the compounds in the presence or absence of copper. Optical density at 234 nm was measured every 10 minutes for 8 hours on a thermostated spectrophotometer (Kontron Uvikon 930). The analyses were carried out in triplicate. A compound was considered to have antioxidant activity when it shifted the lag phase latency relative to the control sample. […] FIG. 4 presents an example of the results obtained with the inventive compounds.
# Gal4/PPARα = molecular target: T1, Gal4/PPARα (Homo sapiens, UniProt Q07869); assay: Gal4/PPARα transactivation system in HepG2 cells (luciferase reporter); details: 24 h, HepG2 cells transfected with Gal4/PPARα plasmids, compound in PC liposomes
# T1 sequence (Q07869 239-466 limits assumed): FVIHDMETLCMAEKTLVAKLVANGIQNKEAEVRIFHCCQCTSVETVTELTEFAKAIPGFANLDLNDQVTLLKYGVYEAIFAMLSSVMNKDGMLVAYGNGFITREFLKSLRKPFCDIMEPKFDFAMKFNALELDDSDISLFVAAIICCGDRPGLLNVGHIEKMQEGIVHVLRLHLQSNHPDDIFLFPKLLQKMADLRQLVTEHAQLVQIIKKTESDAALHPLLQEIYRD
# Protocol: PPAR activation was tested in vitro in RK13 fibroblast cell lines or in a hematocyte line HepG2 by measuring the transcriptional activity of chimeras composed of the DNA binding domain of the yeast gal4 transcription factor and the ligand binding domain of the different PPARs. The example below is given for HepG2 cells.
# HepG2 cells were from ECACC (Porton Down, UK) and were grown in DMEM medium supplemented with 10% (V/V) fetal calf serum, 100 U/ml penicillin (Gibco, Paisley, UK) and 2 mM L-glutamine (Gibco, Paisley, UK). The culture medium was changed every two days. Cells were kept at 37° C. in a humidified 95% air/5% CO2 atmosphere.
# HepG2 cells were seeded in 24-well culture dishes at 5×10^4 cells/well and transfected for 2 hours with the reporter plasmid pG5TkpGL3 (50 ng/well), the expression vectors pGal4-f, pGal4-mPPARα, pGal4-hPPARα, pGal4-hPPARγ, or pGal4-hPPARβ (100 ng/well) and the transfection efficiency control vector pRL-CMV (1 ng/well) according to the previously described protocol (Raspe, Madsen et al. 1999), then incubated for 36 hours with the test compounds. At the end of the experiment, the cells were lysed (Gibco, Paisley, UK) and luciferase activity was determined with a Dual-Luciferase™ Reporter Assay System kit (Promega, Madison, Wisc., USA) according to the supplier's instructions. The protein content of the cell extracts was then measured with the Bio-Rad Protein Assay kit (Bio-Rad, Munich, Germany) as directed by the supplier.
# The results are expressed as the induction factor (luminescent signal of treated cells divided by luminescent signal of untreated cells) after the different treatments.
# [1] = Effects on plasma lipids in rats in vivo; details: Sprague-Dawley rats, 300 mg/kg/day, intragastric gavage, once a day for 15 days
# Protocol: Sprague-Dawley rats weighing 200 to 230 g (Charles River, L'Arbresle, France) were housed in a 12-hour light/dark cycle at a constant temperature of 20±3° C. After a 1-week acclimatization period, rats were weighed and distributed into groups of 8 animals selected such that the distribution of plasma cholesterol and triglyceride levels was uniform. The test compounds were suspended in a vehicle (0.5% carboxymethylcellulose (CMC) and 0.1% Tween) and administered by intragastric gavage at the indicated doses, once a day for 15 days. Animals had access to food and water ad libitum. At the end of the experiments, animals were weighed and sacrificed under anesthesia after a 5-hour fast. Blood was collected on EDTA. Plasma was isolated by centrifugation at 3000 rpm for 20 minutes. […]
# Lipid concentrations in plasma (total cholesterol and triglycerides) were determined by a […] assay (Bio-Mérieux, Marcy I'Etoile, France) according to the supplier's instructions. Plasma concentrations of apolipoproteins AII, AI and CIII were determined as previously described (Raspe, Madsen et al. 1999) and (Asset, Staels et al. 1999).
# To separate the lipoproteins according to size, 300 μl of plasma were loaded on a Sepharose 6HR 10/30 column (Pharmacia, Uppsala, Sweden) and eluted at a constant flow rate (0.2 ml/minute) in PBS (pH 7.2). Optical density of the eluent was recorded at 280 nm. […]
Compound,melting point,induction factor (luminescent signal of treated cells divided by luminescent signal of untreated cells) (Gal4/PPARα; 5 μM) [fold],induction factor (luminescent signal of treated cells divided by luminescent signal of untreated cells) (Gal4/PPARα; 15 μM) [fold],induction factor (luminescent signal of treated cells divided by luminescent signal of untreated cells) (Gal4/PPARα; 50 μM) [fold],induction factor (luminescent signal of treated cells divided by luminescent signal of untreated cells) (Gal4/PPARα; 100 μM) [fold],antioxidant activity on LDL oxidation induced by copper (LDL),other results
"1,2-(dipalmitoyloxy)-3-tetradecylthioacetylaminopropane [Ex 4]",–,–,–,–,–,exhibit intrinsic antioxidant properties,shift in the lag phase latency (delay) (LDL): 34.3%
"1,2-(ditetradecylthioacetyloxy)-3-palmitoylaminopropane [Ex 6]",–,1.1,2.2,9.6,14.5,exhibit intrinsic antioxidant properties,–
"1,2-(ditetradecylthioacetyloxy)-3-tetradecylthioacetylaminopropane [Ex 5]",–,1.2,2.5,7,10.5,exhibit intrinsic antioxidant properties,–
"CCCCCCCCCCCCCCSCC(=O)NCC(O)CO (stereo not drawn) [Ex 2, 3-(tetradecylthioacetylamino)propane-1,2-diol]",–,1.5,7.7,19.8,19.2,exhibit intrinsic antioxidant properties,shift in the lag phase latency (delay) (LDL): 13.4%
"CCCCCCCCCCCCCCSCC(=O)NCC(CNC(=O)CSCCCCCCCCCCCCCC)OC(=O)CSCCCCCCCCCCCCCC [Ex 11, 1,3-ditetradecylthioacetylamino-2-(tetradecylthioacetyloxy)propane]",–,–,–,–,–,exhibit intrinsic antioxidant properties,"total plasma cholesterol ([1]; D0, D7, D14 (FIG. 3A)): lowered; plasma triglycerides ([1]; D0, D7, D14 (FIG. 3B)): lowered"

# The next lines start with results.
melting point,induction factor (luminescent signal of treated cells divided by luminescent signal of untreated cells) (Gal4/PPARα; 5 μM) [fold],induction factor (luminescent signal of treated cells divided by luminescent signal of untreated cells) (Gal4/PPARα; 15 μM) [fold],induction factor (luminescent signal of treated cells divided by luminescent signal of untreated cells) (Gal4/PPARα; 50 μM) [fold],induction factor (luminescent signal of treated cells divided by luminescent signal of untreated cells) (Gal4/PPARα; 100 μM) [fold],Compound,antioxidant activity on LDL oxidation induced by copper (LDL),other results
224 °C (dec.),–,–,–,–,CCCCCCCCCCCCCCCC(=S)OC(CN)CN.Cl.Cl,–,–
181 °C (dec.),–,–,–,–,CCCCCCCCCCCCCCCC(=S)SC(CN)CN.Cl.Cl,–,–
104 to 108 °C,–,–,–,–,"CCCCCCCCCCCCCCCC(=O)NCC(O)CO (stereo not drawn) [Ex 3, 3-(palmitoylamino)propane-1,2-diol]",–,–
